Laboratory results reported in patent US20240374520A1, “PROTEOLIPID VESICLES FORMULATED WITH FUSION ASSOCIATED SMALL TRANSMEMBRANE PROTEINS” (priority 2020, published 2024).

Tested on: WI-38 cells
Type: cell-based, human
Details: Alamar Blue, 72 hours after addition to WI-38 cells
Experimental: Conventional LNPs rely on endosomal escape for intracellular delivery, which results in limited nucleic acid release into the cytosol and is one of the major limitations of LNPs formulated for gene therapy (13, 20, 41). […] These lipids were utilized in a PLV formulation to promote nucleic acid encapsulation through charge neutralization. The optimal molar ratio of DODAP to pDNA was assessed by measuring the delivery and subsequent expression of DNA-encoded firefly luciferase (pDNA-FLuc) in retinal pigmented epithelial (ARPE-19) cells.
Cell cultures in a 96 well plates were treated with test compounds at indicated concentrations. After 24-96 hours, a 1/10 volume of Alamar blue solution (440 μM Resazurin; Sigma R7017 5GM) was added to the cells in culture medium and incubated for 2-4 hours at 37° C. 5% CO2. The Omega Fluostar (BMG LabTech) plate reader was used to measure the fluorescence (excitation wavelength of 540 nm and emission at 590 nm) of the treated cells. Cell viability was calculated using the following formula: […]

Compound	tolerability / toxicity of cationic and ionizable lipids
CCCCCCCC/C=C\CCCCCCCC(=O)OCC(C[N+](C)(C)C)OC(=O)CCCCCCC/C=C\CCCCCCCC (centres unmarked) [DOTAP, 1,2-dioleoyl-3-trimethylammonium-propane]	slightly higher toxicity
CCCCCCCC/C=C\CCCCCCCC(=O)OCC(CN(C)C)OC(=O)CCCCCCC/C=C\CCCCCCCC (centres unmarked) [DODAP, 1,2-dioleoyl-3-dimethylammonium-propane]	most favorable tolerability
